Data taken from patent publication US11000033B2, “Ketone or oxime compound, and herbicide” (NISSAN CHEMICAL CORPORATION, priority 2014, dated 2021).

Key:
Galium spurium = assay: Test Example 5: herbicidal effect by foliage application, plastic box (symbol Q); format: in vivo; conditions: 320 g/ha, 3 weeks after application
Method in brief: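 Sowing in sterilized diluvial soil, 14 days' greenhouse growth at 25° C. to 30° C., then uniform small-sprayer foliar application of aqueous emulsion dilution; plants scored three weeks afterwards.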

Monochoria vaginalis = assay: Test Example 1: herbicidal activity, application before weed generation in submerged conditions (symbol C); format: in vivo; conditions: application herbicide amount 320 g/ha
Method in brief: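 Flooded alluvial soil (4 cm water) was mixed-sown with the three weed species, and 2.5-leaf rice seedlings were transplanted. On sowing day, a water-diluted emulsion at a predetermined rate was applied to the water surface. After 3 weeks in a 25–30 °C greenhouse, effect was scored 0–5.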

Row | Compound | Q: Galium spurium, herbicidal effect grade (Galium spurium) | Herbicidal effect grade, C: Monochoria vaginalis (Monochoria vaginalis) | melting point [°C] | Q: Galium spurium, herbicidal effect (criteria of Test Example 1) (Galium spurium)
1 | CON=C(C)CC1CC(O)=C(c2c(C)cc(C3CC3)cc2C)C1=O (centres unmarked) [6-050] | 3 (Herbicidal ratio of 40% or higher and lower than 70%) | 0 (Herbicidal ratio of 5% or lower (almost no effect)) | 170 to 178 | 
2 | CON=C(C)CC1CC(O)=C(c2c(C)cc(OC)cc2C)C1=O (centres unmarked) [6-055] |  | 0 (Herbicidal ratio of 5% or lower (almost no effect)) | 141 to 143 | 3 (Herbicidal ratio of 40% or higher and lower than 70%)
3 | CON=C(C)CC1CC(O)=C(c2c(C)cc(Br)cc2OC)C1=O (centres unmarked) [6-076, 2-(4-bromo-2-methoxy-6-methylphenyl)-3-hydroxy-5-{2-(methoxyimino)propyl}cyclopent-2-enone] |  | 2 (Herbicidal ratio of 20% or higher and lower than 40%) | 150 to 153 | 3 (Herbicidal ratio of 40% or higher and lower than 70%)
4 | CON=C(C)CC1CC(O)=C(c2c(F)cc(Br)cc2OC)C1=O (centres unmarked) [6-096] |  | 0 (Herbicidal ratio of 5% or lower (almost no effect)) | 157 to 159 | 0 (Herbicidal ratio of 5% or lower (almost no effect))
5 | CON=C(C)CC1CC(O)=C(c2c(C)cc(-c3ccccc3)cc2OC)C1=O (centres unmarked) [6-099] |  | 5 (Herbicidal ratio of 90% or more (almost completely withered)) | 175 to 177 | 5 (Herbicidal ratio of 90% or more (almost completely withered))
6 | CON=C(C)CC1CC(O)=C(c2c(OC)cc(C)cc2OC)C1=O (centres unmarked) [6-103] |  | 0 (Herbicidal ratio of 5% or lower (almost no effect)) | 171 to 175 | 0 (Herbicidal ratio of 5% or lower (almost no effect))
7 | CON=C(C)CC1CC(O)=C(c2c(F)cc(-c3ccccc3)cc2OC)C1=O (centres unmarked) [6-107] |  | 5 (Herbicidal ratio of 90% or more (almost completely withered)) | 175 to 177 | 5 (Herbicidal ratio of 90% or more (almost completely withered))
8 | CON=C(C)CC1CC(O)=C(c2c(F)cc(C)cc2OC)C1=O (centres unmarked) [6-108] |  | 0 (Herbicidal ratio of 5% or lower (almost no effect)) |  | 3 (Herbicidal ratio of 40% or higher and lower than 70%)
9 | CON=C(C)CC1CC(OC(=O)N(C)C)=C(c2c(C)cc(C)cc2OC)C1=O (centres unmarked) [6-109] |  | 3 (Herbicidal ratio of 40% or higher and lower than 70%) |  | 0 (Herbicidal ratio of 5% or lower (almost no effect))
10 | CON=C(C)CC1CC(OC(=O)N2CCCC2)=C(c2c(C)cc(C)cc2OC)C1=O (centres unmarked) [6-110] |  | 0 (Herbicidal ratio of 5% or lower (almost no effect)) |  | 3 (Herbicidal ratio of 40% or higher and lower than 70%)
11 | CON=C(C)CC1CC(OC(=O)N2CCCCC2)=C(c2c(C)cc(C)cc2OC)C1=O (centres unmarked) [6-111] |  | 2 (Herbicidal ratio of 20% or higher and lower than 40%) |  | 0 (Herbicidal ratio of 5% or lower (almost no effect))
12 | CON=C(C)CC1CC(O)=C(c2c(C)cccc2C)C1=O (centres unmarked) [6-112] |  | 0 (Herbicidal ratio of 5% or lower (almost no effect)) | 167 to 170 | 0 (Herbicidal ratio of 5% or lower (almost no effect))
13 | CON=C(C)C(C)C1CC(O)=C(c2c(C)cc(Br)cc2OC)C1=O (centres unmarked) [6-113] |  | 0 (Herbicidal ratio of 5% or lower (almost no effect)) |  | 0 (Herbicidal ratio of 5% or lower (almost no effect))
14 | CC(=O)CC1CC(O)=C(c2c(C)cc(Br)cc2C)C1=O (centres unmarked) [7-002] |  | 0 (Herbicidal ratio of 5% or lower (almost no effect)) |  | 0 (Herbicidal ratio of 5% or lower (almost no effect))
15 | CCc1cc(Br)cc(C)c1C1=C(O)CC(CC(C)=O)C1=O (centres unmarked) [7-003] |  | 0 (Herbicidal ratio of 5% or lower (almost no effect)) |  | 0 (Herbicidal ratio of 5% or lower (almost no effect))
16 | CC(=O)CC1CC(O)=C(c2c(C)cc(-c3ccccc3)cc2C)C1=O (centres unmarked) [7-004] |  | 0 (Herbicidal ratio of 5% or lower (almost no effect)) |  | 0 (Herbicidal ratio of 5% or lower (almost no effect))
17 | CC(=O)CC1CC(O)=C(c2c(C)cc(-c3ccc(C(F)(F)F)cc3)cc2C)C1=O (centres unmarked) [7-005] |  | 0 (Herbicidal ratio of 5% or lower (almost no effect)) |  | 0 (Herbicidal ratio of 5% or lower (almost no effect))
18 | COc1ccc(-c2cc(C)c(C3=C(O)CC(CC(C)=O)C3=O)c(C)c2)cc1 (centres unmarked) [7-006] |  | 0 (Herbicidal ratio of 5% or lower (almost no effect)) |  | 0 (Herbicidal ratio of 5% or lower (almost no effect))
19 | CC#Cc1cc(C)c(C2=C(O)CC(CC(C)=O)C2=O)c(C)c1 (centres unmarked) [7-010] |  | 1 (Herbicidal ratio of 5% or higher and lower than 20%) |  | 0 (Herbicidal ratio of 5% or lower (almost no effect))
20 | CC(=O)CC1CC(O)=C(c2c(C)cc(C)cc2Br)C1=O (centres unmarked) [7-011] |  | 0 (Herbicidal ratio of 5% or lower (almost no effect)) |  | 0 (Herbicidal ratio of 5% or lower (almost no effect))
21 | CC(=O)CC1CC(O)=C(c2c(C)cc(OCc3ccccc3)cc2C)C1=O (centres unmarked) [7-018] |  | 0 (Herbicidal ratio of 5% or lower (almost no effect)) |  | 0 (Herbicidal ratio of 5% or lower (almost no effect))
22 | COc1cc(C)c(C2=C(O)CC(CC(C)=O)C2=O)c(C)c1 (centres unmarked) [7-020] |  | 0 (Herbicidal ratio of 5% or lower (almost no effect)) |  | 0 (Herbicidal ratio of 5% or lower (almost no effect))
23 | CC(=O)CC1CC(O)=C(c2c(C)cc(-n3cccn3)cc2C)C1=O (centres unmarked) [7-024] |  | 2 (Herbicidal ratio of 20% or higher and lower than 40%) |  | 0 (Herbicidal ratio of 5% or lower (almost no effect))
24 | COc1cc(Br)cc(C)c1C1=C(O)CC(CC(C)=O)C1=O (centres unmarked) [7-027, 2-(4-bromo-2-methoxy-6-methylphenyl)-3-hydroxy-5-(2-oxopropyl)cyclopent-2-enone] |  | 2 (Herbicidal ratio of 20% or higher and lower than 40%) |  | 0 (Herbicidal ratio of 5% or lower (almost no effect))
25 | COc1cc(Br)cc(F)c1C1=C(O)CC(CC(C)=O)C1=O (centres unmarked) [7-029] |  | 0 (Herbicidal ratio of 5% or lower (almost no effect)) |  | 0 (Herbicidal ratio of 5% or lower (almost no effect))
26 | CC(=O)C1CC(O)=C(c2c(C)cc(C)cc2C)C1=O (centres unmarked) [8-001] | 0 (Herbicidal ratio of 5% or lower (almost no effect)) | 0 (Herbicidal ratio of 5% or lower (almost no effect)) |  | 
27 | CON=C(C)C(=NOC)C1CC(O)=C(c2c(C)cc(C)cc2C)C1=O (centres unmarked) [8-003] | 0 (Herbicidal ratio of 5% or lower (almost no effect)) | 0 (Herbicidal ratio of 5% or lower (almost no effect)) |  | 
